Laboratory results: patent US20070207975A1, “Materials and methods for treating and preventing Her-2/neu overexpressing, FAS-elevated cancer cells” (EVANSTON NORTHWESTERN HEALTHCARE, priority 2006, published 2007)

What was measured:
p185^Her-2/neu [1] = settings: cultured breast cancer cells; exogenous GLA supplementation; reference (16); cited from earlier work
Lipogenic Cells = experiment: Effect of fatty acids, lipogenic cells (Table 2); format: cell-based
AP-2 = AP-2 expression levels; format: cell-based, human
PEA3 = experiment: Immunoblot analysis of PEA3 protein; format: cell-based, human
Description: […] Louis, Mo.). […] […] A) Cell surface expression of Her-2/neu protein in BT-474 and SK-Br3 cells was determined by flow cytometry using a mouse anti-Her-2/neu antibody directed against the extracellular domain of the p185^Her-2/neu oncoprotein (clone Ab-5; Oncogene Research Products; San Diego, Calif.). Briefly, after GLA or control treatment, cells were washed, harvested, resuspended in phosphate-buffered saline (PBS) containing 1% FBS, and incubated with 5 μg/mL Ab-5 antibody for 1 hour at 4° C. The cells were washed again and then incubated with a fluorescein isothiocyanate (FITC)-conjugated anti-mouse IgG secondary antibody (Jackson ImnunoResearch Laboratories, West Grove, Pa.) diluted 1:200 in cold PBS containing 1% FBS for 45 minutes at 4° C. The cells were washed once more in cold PBS, and flow cytometric analysis was performed with a FACScalibur flow cytometer (Becton Dickinson, San Diego, Calif.) equipped with Cell Quest Software (Becton Dickinson). […] As a control for nonspecific immunofluorescence, cells were stained with the secondary antibody alone (solid black line). The mean fluorescence signal associated with cells for labeled p185^Her-2/neu was quantified using the Geo Mean (GM) fluorescence parameter provided with the software. […] B) Immunoblot analysis of Her-2/neu and PEA3 proteins in control- and GLA-treated BT-474 and SK-Br3 cells. Cells were washed twice with PBS and then lysed in buffer (20 m M Tris [pH 7.5], 150 m M NaCl, 1 mM EDTA, 1 m M EGTA, 1% Triton X-100, 2.5 m M sodium pyrophosphate, 1 mM β-glycerolphosphate, 1 mM Na3VO4, 1 μg/ml leupeptin, 1 mM phenylmethylsulfonyl fluoride) for 30 minutes on ice. Equal amounts of protein (10 μg) were heated in sodium dodecyl sulfate (SDS) sample buffer for 10 minutes at 70° C., subjected to electrophoresis on either 3-8% NuPAGE Tris-acetate (p185^Her-2/neu) or 10% SDS-polyacrylamide gel electrophoresis (PEA3) gels, and transferred to nitrocellulose membranes. Nonspecific binding was blocked by incubation for 1 hour with TBS-T (25 mM Tris-HCl [pH 7.5], 150 mM NaCl, and 0.05% Tween-20) containing 5% nonfat dry milk. The treated filters were washed in TBS-T and then incubated with primary antibodies, anti-p185^Her-2/neu mouse monoclonal antibody—Clone Ab-3 [Oncogene Research Products, San Diego, Calif.] and anti-PEA3 mouse monoclonal antibody—sc-113 [Santa Cruz Biotechnology, Santa Cruz, Calif.], for 2 hours in TBS-T containing 5% (w/v) nonfat dry milk. The membranes were washed in TBS-T and horseradish peroxidase—conjugated secondary antibodies in TBS-T were added for 45 minutes. Immunoreactive bands were detected by enhanced chemiluminescence reagent (Pierce, Rockford, Ill.). Blots were reprobed with an anti-β-actin goat polyclonal antibody (Santa Cruz Biotechnology) to control for protein loading and transfer. Densitometric values of protein bands were quantified using Scion Imaging Software (Scion Corp., Frederick, Md.).

SK-Br3 and BT-474 cells = experiment: Anchorage-dependent cell proliferation (Coulter Counter); format: cell-based, human; settings: low concentrations of OA, increasing concentrations of trastuzumab, or combination, 6 days
Description: (A) Left panel: exponentially growing SK-Br3 and BT-474 cells were trypsinized and plated in 24-well plates at a density of 10,000 cells/well. Cells were incubated for 24 hours to allow for attachment and starved for serum overnight, after which a zero time point was determined. […] Cells were counted at days 0, 3 and 6 with a Coulter Counter. All assays were performed three times in triplicate. The data are presented as mean number of cells×10^4/well (columns)±SD (bars) after 6 days treatment. […] For each pair of columns, the height of the columns on the left represents the sum of the effect of each agent alone and, therefore, the expected percentage of cell growth inhibition if their effect was additive when used in combination. […] Colony formation (≧50 μm) was assessed using a colony counter. Each experimental value represents the mean colony number (columns)±SD (bars) from three separate experiments in which triplicate dishes were counted. […]
SK-Br3 and BT-474 cells exponentially growing in IMEM-5% FBS were trypsinized and re-plated in 24-well plates at a density of 10,000 cells/well. Cells were incubated for 24 hours to allow for attachment, after which a zero time point was determined. […] Cell number was determined at days 0, 3 and 6 with a Coulter Counter (Coulter Electronics, Inc., Hialeah, Fla.). […]

p185^Her-2/neu [2] = experiment: In situ immunofluorescent staining of p185Her-2/neu; format: cell-based, human; settings: BT-474; 48 hours
Description: FIG. 2. Exogenous supplementation with OA synergistically enhances trastuzumab-induced down-regulation of p185^Her-2/neu. […] The amount of cell surface-associated p185^Her-2/neu was quantified by flow cytometric analyses using a specific antibody against the extracellular domain of p185^Her-2/neu (Ab-5), as described herein. The mean fluorescence signal±SD (n=3) was quantified using the geo mean fluorescence (GM) parameter provided with the Cell Quest Software (Becton Dickinson). […] After labeling, cells were washed thoroughly, and localization of p185^Her-2/neu was detected by indirect immunofluorescence by incubating with FITC-conjugated anti-mouse IgG. After counterstaining with DAPI, cells were examined and photographed using a Zeiss fluorescent microscope equipped with a built-in camera. […] Similar results were obtained in three independent experiments. […] Similar results were obtained in three independent experiments. Cells were seeded at a density of 1×10^4 cells/well in a four-well chamber slide (Nalge Nunc International, Rochester, N.Y.). […] Indirect immunofluorescence was recorded on a Zeiss microscope. […] Thereafter, p185^Her-2/neu cellular localization was assessed using the anti-erbB2, Ab-3 mouse monoclonal antibody (Oncogene Research Products), which is directed against the C-terminal 14 amino acids of p185^Her-2/neu. […]

p27^Kip1 = experiment: Western blot of p27Kip1 expression; format: cell-based, human; settings: BT-474; 72 hours; OA, trastuzumab or combination
Description: (§1) Densitometric values of protein bands were quantified using Scion Imaging Software (Scion Corp., Frederick, Md.).

[3] = system: phospho-MAPK and phospho-Ser^473 AKT; experiment: Western blot of phospho-MAPK and phospho-AKT; format: cell-based, human; settings: BT-474; 48 hours; OA 5 μM, trastuzumab 10 μg/ml in combination
Description: as §1

Row | Structure (SMILES) | proteolytic cleavage of the extracellular domain of p185^Her-2/neu (p185^Her-2/neu [1]) | Effect of Fatty Acids: Lipogenic Cells (Lipogenic Cells) | AP-2 expression (AP-2; GLA-treated cells) | levels of PEA3 protein (PEA3; BT-474 and SK-Br3, GLA 10 μg/mL for 48 hours) | levels of PEA3 protein (PEA3; MDA-MB-231, GLA exposure) | PEA3 protein expression (PEA3; MDA-MB-453, SK-OV3 and NCI-N87, GLA 10 μg/mL for 48 hours) | anchorage-dependent cell growth (SK-Br3 and BT-474 cells) | p185^Her-2/neu-associated membrane (cell surface) staining (p185^Her-2/neu [2]) | expression of p27^Kip1 (p27^Kip1) | AP-2 expression levels (AP-2; Her-2/neu-overexpressing cancer cells, OA supplementation) | active MAPK and active AKT (phospho-MAPK, phospho-Ser^473 AKT) [3] | PEA3 protein levels (PEA3; MCF-7/neo cells, OA supplementation) | PEA3 protein expression (PEA3; SK-Br3, SK-OV3 and NCI-N87, OA 20 μM, 48 hours)
1 | CCCCCC=CCC=CCC=CCCCCC(=O)O [GLA, 6,9,12-octadecatrienoic acid] | significantly diminished | No effect | does not appear to regulate | increase | not changed substantially | increased | – | – | – | – | – | – | –
2 | CCCCCCCCC=CCCCCCCCC(=O)O [OA, 9-octadecenoic acid] | – | No effect | – | – | – | – | no notable effects | markedly reduced | slight increase | failed to modulate | inhibited active MAPK and active AKT | not significantly affected | significant up-regulation
